{"source": "patent US12097177B2", "about": "“Therapeutic method for cat with chronic kidney disease” (Toray Industries, Inc., priority 2021, dated 2024)", "origin": "cited, not measured here", "key": {"[1]": {"conditions": "humans; cited from earlier work"}, "[2]": {"conditions": "rats; cited from earlier work"}, "[3]": {"tested_on": "feline CKD", "conditions": "in vivo; cited from earlier work"}, "[4]": {"tested_on": "feline CKD", "conditions": "in vivo; cited from earlier work", "remark": "listed apart in the source"}, "[5]": {"tested_on": "feline CKD", "conditions": "in vivo; cited from earlier work", "remark": "listed apart in the source"}}, "note": "Where a name gives a salt, the structure may show the parent alone. Read-outs that look alike come from different tables or passages of the source."}
{"smiles": "CC#CC[C@H](C)[C@H](O)/C=C/[C@@H]1[C@H]2c3cccc(CCCC(=O)[O-])c3O[C@H]2C[C@H]1O.[Na+]", "note": "(single isomer, unassigned) [BPS-314d]", "values": [{"measurement": "AUC of plasma BPS-314d when BPS is administered (fraction)", "setting": "[1]", "result": "¼"}, {"measurement": "Cmax of plasma BPS-314d when BPS is administered (fraction)", "setting": "[1]", "result": "¼"}, {"measurement": "AUC of plasma BPS-314d when BPS is administered (fraction)", "setting": "[2]", "result": "¼"}, {"measurement": "Cmax of plasma BPS-314d when BPS is administered (fraction)", "setting": "[2]", "result": "¼"}]}
{"smiles": "CCCc1nc2c(C)cc(-c3nc4ccccc4n3C)cc2n1Cc1ccc(-c2ccccc2C(=O)O)cc1", "note": "[telmisartan]", "values": [{"measurement": "proteinuria", "setting": "[3]", "result": "improve proteinuria of feline CKD"}]}
{"smiles": "CN1N=C2CCN(C(=O)[C@@H](COCc3ccccc3)NC(=O)C(C)(C)N)C[C@@]2(Cc2ccccc2)C1=O", "note": "[capromorelin]", "values": [{"measurement": "body weight loss", "setting": "[4]", "result": "inhibit body weight loss"}, {"measurement": "overall survival rate or observed survival rate", "setting": "[4]", "result": "no improvement in the overall survival rate or the observed survival rate of feline CKD has been demonstrated"}]}
{"smiles": "CCOC(=O)[C@H](CCc1ccccc1)N[C@H]1CCc2ccccc2N(CC(=O)O)C1=O", "note": "[Benazepril hydrochloride, benazepril hydrochloride]", "values": [{"measurement": "progression of feline CKD stage", "setting": "[5]", "result": "has not been found to inhibit progression of feline CKD stage"}, {"measurement": "proteinuria", "setting": "[5]", "result": "lower the severity of proteinuria"}, {"measurement": "serum creatinine", "setting": "[5]", "result": "inhibit elevation in serum creatinine"}]}
